Reference: ChEMBL document CHEMBL1201862, “PubChem BioAssay data set” (2004)
Several values for one entry are separate records, joined by “and”; a condition that tells them apart may be missing. Equal entries are not always repeated.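 Each compound was tested at five concentrations against cells in 96-well plates for 48 hours. At the GI50, growth is halved.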 Activity calls are given as the source filed them. No stated cut-off is given here; in the data, active = GI50 up to about 1.1 µM and inactive = higher.

Key:
Assay in all cases: growth of human tumour cells (NCI), 48 h
CAKI-1 = tested on: CAKI-1
COLO 205 = tested on: COLO 205
HL-60 = tested on: HL-60
HOP-92 = tested on: HOP-92
IGROV-1 = tested on: IGROV-1
KM12 = tested on: KM12
M14 = tested on: M14
MDA-MB-435 = tested on: MDA-MB-435
Malme-3M = tested on: Malme-3M
NCI-H226 = tested on: NCI-H226
OVCAR-5 = tested on: OVCAR-5
OVCAR-8 = tested on: OVCAR-8
SK-MEL-28 = tested on: SK-MEL-28
SK-MEL-2 = tested on: SK-MEL-2
TK-10 = tested on: TK-10
U-251 = tested on: U-251
HCT-15 = tested on: HCT-15
NCI-H460 = tested on: NCI-H460
SK-OV-3 = tested on: SK-OV-3
SNB-75 = tested on: SNB-75

Measured: GI50

CC1=CC(=O)CC2(C)CCC(C(C)CC(=O)CC(C)C)CC12OO (stereo not drawn)
inactive: CAKI-1 19.3 µM | COLO 205 18.8 µM and 14.3 µM | HL-60 1.83 µM and 1.87 µM | HOP-92 15.9 µM and 18 µM | IGROV-1 15 µM and 20 µM | KM12 15.6 µM and 16.9 µM | M14 16.5 µM and 17.9 µM | MDA-MB-435 17.5 µM and 18.3 µM | Malme-3M 29.8 µM and 16.7 µM | NCI-H226 18.3 µM and 18.7 µM | OVCAR-5 19.9 µM and 19.4 µM | OVCAR-8 19.2 µM and 27.7 µM | SK-MEL-28 18.5 µM and 15.2 µM | SK-MEL-2 16.9 µM and 20.2 µM | TK-10 19.3 µM and 18.7 µM | U-251 19 µM and 17.6 µM

CCOP(=O)(/C=C/n1cnc2c(=O)n(C(C)=O)c(N)nc21)OCC
> 100 µM: HCT-15
inactive: CAKI-1 > 100 µM | COLO 205 > 100 µM | HL-60 > 100 µM | IGROV-1 > 100 µM | KM12 > 100 µM | M14 > 100 µM | MDA-MB-435 > 100 µM | NCI-H226 70.3 µM | NCI-H460 > 100 µM | OVCAR-5 > 100 µM | OVCAR-8 > 100 µM | SK-MEL-28 > 100 µM | SK-MEL-2 > 100 µM | SK-OV-3 > 100 µM | SNB-75 > 100 µM | TK-10 > 100 µM | U-251 > 100 µM

CC(=O)Oc1cccc2c1C(=O)CCCC2
> 100 µM: HCT-15
active: SNB-75 0.0692 µM
inactive: CAKI-1 > 100 µM | COLO 205 > 100 µM | HL-60 > 100 µM | IGROV-1 > 100 µM | KM12 > 100 µM | M14 > 100 µM | MDA-MB-435 > 100 µM | Malme-3M > 100 µM | NCI-H226 > 100 µM | NCI-H460 > 100 µM | OVCAR-5 > 100 µM | OVCAR-8 > 100 µM | SK-MEL-28 > 100 µM | SK-MEL-2 > 100 µM | SK-OV-3 > 100 µM | TK-10 > 100 µM | U-251 > 100 µM

O=C1/C(=C/c2cccc([N+](=O)[O-])c2)N=C(c2ccccc2)N1c1nc2c(Cl)cc(Cl)cc2s1
29.3 µM: HCT-15
inactive: CAKI-1 40.7 µM | COLO 205 31.8 µM | HL-60 21.7 µM | HOP-92 24.6 µM | IGROV-1 23.2 µM | KM12 19.9 µM | M14 21.8 µM | MDA-MB-435 20.8 µM | NCI-H460 27.5 µM | OVCAR-5 26.7 µM | OVCAR-8 22 µM | SK-MEL-28 40.7 µM | SK-MEL-2 21.4 µM | SK-OV-3 31.2 µM | TK-10 45.2 µM | U-251 17.8 µM

Cc1ccc(-c2ccc(Nc3c4ccccc4nc4ccccc34)cc2)cn1
active: HOP-92 0.322 µM
inactive: CAKI-1 2.72 µM | COLO 205 3.37 µM | IGROV-1 5.43 µM | KM12 3.8 µM | M14 2.95 µM | MDA-MB-435 4.43 µM | NCI-H460 1.44 µM | OVCAR-5 19.5 µM | OVCAR-8 4.81 µM | SK-MEL-28 2.51 µM | SK-MEL-2 1.87 µM | TK-10 9.14 µM
3.75 µM: HCT-15

CCOc1ccc(NC(=S)N/C=C(/C(C)=O)C(=O)Nc2ccccc2C)cc1
inactive: CAKI-1 > 100 µM | COLO 205 > 100 µM | HL-60 > 100 µM | IGROV-1 > 100 µM | KM12 > 100 µM | M14 > 100 µM | MDA-MB-435 > 100 µM | NCI-H226 > 100 µM | NCI-H460 > 100 µM | OVCAR-5 > 100 µM | OVCAR-8 > 100 µM | SK-MEL-2 > 100 µM | SK-OV-3 > 100 µM | TK-10 > 100 µM | U-251 > 100 µM
> 100 µM: HCT-15

CN(C)c1ccc(/C=C/C(=O)CC(=O)/C=C/c2ccc(N(C)C)cc2)cc1
> 100 µM: HCT-15
inactive: CAKI-1 > 100 µM | COLO 205 > 100 µM | HL-60 > 100 µM | IGROV-1 > 100 µM | KM12 > 100 µM | M14 > 100 µM | MDA-MB-435 > 100 µM | Malme-3M > 100 µM | NCI-H226 > 100 µM | NCI-H460 > 100 µM | OVCAR-5 > 100 µM | OVCAR-8 > 100 µM | SK-MEL-28 > 100 µM | SK-MEL-2 > 100 µM | SK-OV-3 > 100 µM | SNB-75 > 100 µM | TK-10 > 100 µM | U-251 > 100 µM

CN(C)CCNC1=Nc2ccccc2C(=O)N2CSCC12 (stereo not drawn)
> 100 µM: HCT-15
inactive: CAKI-1 > 100 µM | COLO 205 > 100 µM | IGROV-1 > 100 µM | KM12 > 100 µM | M14 > 100 µM | MDA-MB-435 > 100 µM | Malme-3M > 100 µM | NCI-H226 > 100 µM | NCI-H460 > 100 µM | OVCAR-5 > 100 µM | OVCAR-8 > 100 µM | SK-MEL-28 > 100 µM | SK-MEL-2 > 100 µM | SK-OV-3 > 100 µM | SNB-75 > 100 µM | TK-10 > 100 µM | U-251 > 100 µM

CCNC(=O)c1cc(Cl)ccc1NC(=O)C12CC3CC(CC(C3)C1)C2
32.7 µM: HCT-15
inactive: CAKI-1 30.3 µM | COLO 205 31 µM | HL-60 25.5 µM | HOP-92 30.4 µM | IGROV-1 33.1 µM | KM12 27.2 µM | M14 31.8 µM | MDA-MB-435 29 µM | Malme-3M > 100 µM | NCI-H226 > 100 µM | NCI-H460 34.3 µM | OVCAR-5 42.3 µM | OVCAR-8 34.3 µM | SK-MEL-28 35.8 µM | SK-MEL-2 23.1 µM | TK-10 52.8 µM | U-251 34.5 µM

COc1ccc(S(=O)(=O)c2nnc(S(=O)(=O)Cc3ccccc3)s2)cc1
inactive: CAKI-1 17.5 µM | COLO 205 13 µM | KM12 29.6 µM | M14 17.5 µM | MDA-MB-435 22.5 µM | NCI-H460 17.4 µM | OVCAR-5 25.8 µM | OVCAR-8 21.9 µM | SK-MEL-28 20.5 µM | SK-MEL-2 18.3 µM | SK-OV-3 22.5 µM | SNB-75 16.4 µM | TK-10 15.7 µM | U-251 19.5 µM
25.7 µM: HCT-15

CC1=NN(c2cccc(Cl)c2)C2(SCC(=O)N2c2nc3ccccc3s2)C1=CC=Cc1ccccc1 (stereo not drawn)
inactive: CAKI-1 31.1 µM | HL-60 1.47 µM | HOP-92 17.7 µM | IGROV-1 31.3 µM | KM12 31.2 µM | M14 32.1 µM | MDA-MB-435 31 µM | NCI-H226 53 µM | NCI-H460 30.5 µM | OVCAR-5 51.6 µM | OVCAR-8 35.6 µM | SK-MEL-28 34.4 µM | SK-MEL-2 21.7 µM | SK-OV-3 27.4 µM | TK-10 62.4 µM | U-251 17.8 µM
29.2 µM: HCT-15

O=C(O)c1cccc2c1/C(=N/Nc1ccccc1)CC2
inactive: CAKI-1 26.1 µM | HOP-92 > 100 µM | IGROV-1 > 100 µM | KM12 > 100 µM | M14 16.6 µM | MDA-MB-435 > 100 µM | NCI-H226 19.9 µM | NCI-H460 32.1 µM | OVCAR-5 > 100 µM | OVCAR-8 > 100 µM | SK-MEL-28 > 100 µM | SK-MEL-2 66.8 µM | SK-OV-3 > 100 µM | TK-10 > 100 µM | U-251 > 100 µM
> 100 µM: HCT-15
